These results are taken from ChEMBL document CHEMBL1138495, “Inhibition of subgenomic hepatitis C virus RNA replication by acridone derivatives: identification of an NS3 helicase inhibitor” (J Med Chem, 2009).

For series [1], the system named is Hepatitis C virus. Kind of series: Antiviral activity against HCV infected in human HuH5.2 assessed as inhibition of viral RNA synthesis after 4 days by Steady-Glo-luciferase assay. Format: functional, organism-based, Hepacivirus hominis. The conditions noted are these: Huh-5-2, 96 h.
The test system of series [2] is Hepacivirus hominis. Kind of series: Inhibition of HCV recombinant NS5B RNA polymerase expressed in Escherichia coli up to 100 uM by liquid scintillation counter.
Series [3] relates to Vero. Briefly: Cytostatic activity against african green monkey Vero cells in presence of guanosine. The conditions noted are these: chlorocebus sabaeus. Format: ADME, cell-based.
Series [4] is described as follows: Inhibition of ATPase activity of HCV […] expressed in Escherichia coli. On the set-up: species or system Hepacivirus hominis.
Series [5] in a line: Cytostatic activity against human HuH5.2 after 3 days by MTS/PMS assay. Format: ADME, Huh-5-2. The conditions noted are these: HuH5.2 cells.
Series [6] deals with Vero. Briefly: Cytostatic activity against african green monkey Vero cells. To be noted: chlorocebus sabaeus. In kind it is ADME, cell-based.
Series [7] in a line: Inhibition of HCV NS3 helicase expressed in Escherichia coli. On the set-up: species or system Hepacivirus hominis.
Series [8] can be described thus: Cytotoxicity against MDBK cells after 3 days by MTS/PMS method. Format: cell-based, Bos taurus. The conditions noted are these: cattle.
Series [9] concerns the target DNA topoisomerase 2-alpha (Homo sapiens) (UniProt P11388). Kind of series: Inhibition of human topoisomerase 2.
Series [10] concerns Bovine viral diarrhea virus 1. Kind of series: Antiviral activity against Bovine viral diarrhea virus infected in MDBK cells assessed as inhibition of virus-induced cytopathic effect after 4 to 5 days by microscopy. Format: functional, organism-based. The conditions noted are these: Bovine viral diarrhea virus isolates and strains. A general note: Cytopathic effects are the visible damage that an infection or toxin causes in cultured cells.

Molecules are shown by their SMILES. Values after ≈ are worked out from the molar mass of the structure shown. Active and inactive are the calls of the source. The rule behind the calls is not given here.

The term EC50 denotes the concentration at which the effect is half-maximal. As a reminder, the IC50 is the midpoint of a concentration-inhibition curve. The term CC50 denotes the concentration at which the toxic effect on the cells reaches its halfway point.

Chain of DNA topoisomerase 2-alpha (Homo sapiens) (P11388 whole entry): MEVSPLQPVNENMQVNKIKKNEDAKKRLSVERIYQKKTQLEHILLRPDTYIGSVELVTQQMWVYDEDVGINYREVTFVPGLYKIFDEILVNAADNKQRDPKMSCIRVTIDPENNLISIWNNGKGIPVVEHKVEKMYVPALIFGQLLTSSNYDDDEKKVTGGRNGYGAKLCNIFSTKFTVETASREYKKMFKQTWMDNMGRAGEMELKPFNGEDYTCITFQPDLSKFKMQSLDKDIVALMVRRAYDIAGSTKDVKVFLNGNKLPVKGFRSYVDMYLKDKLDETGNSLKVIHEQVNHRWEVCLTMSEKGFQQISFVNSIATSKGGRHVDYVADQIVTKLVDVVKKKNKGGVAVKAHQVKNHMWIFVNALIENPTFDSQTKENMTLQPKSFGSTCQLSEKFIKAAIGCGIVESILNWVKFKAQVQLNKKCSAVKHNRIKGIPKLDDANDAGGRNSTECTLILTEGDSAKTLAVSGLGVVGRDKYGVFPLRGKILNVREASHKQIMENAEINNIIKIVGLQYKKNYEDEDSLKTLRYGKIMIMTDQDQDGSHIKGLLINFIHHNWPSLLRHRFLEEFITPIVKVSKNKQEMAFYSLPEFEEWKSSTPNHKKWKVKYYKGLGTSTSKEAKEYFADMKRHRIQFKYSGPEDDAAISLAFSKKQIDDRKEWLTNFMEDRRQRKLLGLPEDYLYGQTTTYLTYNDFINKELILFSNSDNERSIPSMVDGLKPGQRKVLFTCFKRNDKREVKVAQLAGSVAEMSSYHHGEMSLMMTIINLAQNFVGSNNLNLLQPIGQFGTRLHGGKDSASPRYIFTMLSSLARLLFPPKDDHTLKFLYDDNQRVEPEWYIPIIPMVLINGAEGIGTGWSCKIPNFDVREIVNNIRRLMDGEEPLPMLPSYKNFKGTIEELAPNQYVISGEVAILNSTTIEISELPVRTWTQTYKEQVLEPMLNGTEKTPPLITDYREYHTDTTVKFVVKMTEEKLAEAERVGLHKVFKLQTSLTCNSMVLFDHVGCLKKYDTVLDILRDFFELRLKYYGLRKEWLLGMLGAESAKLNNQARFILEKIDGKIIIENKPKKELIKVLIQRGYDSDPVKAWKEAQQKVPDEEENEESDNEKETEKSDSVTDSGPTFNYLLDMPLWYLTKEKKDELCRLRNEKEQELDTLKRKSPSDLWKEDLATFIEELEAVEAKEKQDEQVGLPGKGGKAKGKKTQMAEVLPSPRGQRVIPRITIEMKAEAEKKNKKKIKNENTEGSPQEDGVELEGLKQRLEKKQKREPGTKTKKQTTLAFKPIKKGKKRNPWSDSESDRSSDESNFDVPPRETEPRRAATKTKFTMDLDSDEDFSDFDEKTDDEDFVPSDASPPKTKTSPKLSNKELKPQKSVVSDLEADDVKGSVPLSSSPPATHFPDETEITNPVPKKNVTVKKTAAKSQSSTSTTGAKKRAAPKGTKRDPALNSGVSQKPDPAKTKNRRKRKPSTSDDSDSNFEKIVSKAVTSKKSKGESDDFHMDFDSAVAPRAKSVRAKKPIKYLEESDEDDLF

With `COc1cc(OCC(C)C)c2c(=O)c3cc(N)c(N4CCN(c5ccccn5)CC4)cc3n(C)c2c1`, the half-maximal effective concentration (EC50) in series [1] stood at 3.8 µg/mL (≈ 7.79 µM). Also, the outcome in series [2] was inactive. In addition, the Activity entry in series [3] is recorded as “Non-toxic”; in [6] it was “Toxic”. In [4], this molecule gave an IC50 above 1000 µM. In series [5], this molecule returned a CC50 at 72 h of 27 µg/mL (≈ 55.4 µM).
As for `COc1cc(OC)c2c(=O)c3cc(N)c(N4CCN(c5nccs5)CC4)cc3n(C)c2c1`, in [1], the EC50 was 3 µg/mL (≈ 6.64 µM). The IC50 in series [7] was 50 µg/mL (≈ 111 µM); in series [4], above 1000 µM. The outcome in series [2] was inactive. For the same molecule, the Activity result is listed as “Non-toxic” in series [3] and “Toxic” in [6]. The CC50 at 72 h in series [5] is above 50 µg/mL.
As to `COc1cc(OC)c2c(=O)c3ccc(N4CCN(c5ccccn5)CC4)cc3n(C)c2c1`, the EC50 in series [1] is 2.3 µg/mL (≈ 5.34 µM). Also, the result in [2] was inactive. The Activity result in [3] was “Non-toxic”; in [6] it was “Toxic”. The molecule also registered an IC50 in series [4] above 1000 µM. Also, the CC50 at 72 h in [5] was above 50 µg/mL.
Regarding `Cn1c2cc(N3CCN(c4ccccn4)CC3)c(N)cc2c(=O)c2c(O)cc(O)cc21`, the EC50 in series [1] was 1.7 µg/mL (≈ 4.07 µM); in [10] it was 0.5 µg/mL (≈ 1.2 µM). Moreover, the results for the half-maximal cytotoxic concentration (CC50) at 72 h in series [8] and in [5] were above 100 µg/mL and 21 µg/mL (≈ 50.3 µM), respectively. The outcome in [9] and in series [2] was inactive. The molecule also gave an IC50 in series [4] above 1000 µM.
Consider `COc1cc(O)c2c(=O)c3cc(N)c(N4CCN(c5ccccn5)CC4)cc3n(C)c2c1`, for which the EC50 in series [1] is 13 µg/mL (≈ 30.1 µM); in [10], 4 µg/mL (≈ 9.27 µM). Also, the CC50 at 72 h was above 100 µg/mL in series [8] and above 50 µg/mL in [5]. Besides, the outcome in [2] was inactive. Further, the 50% inhibitory concentration (IC50) in series [4] is above 1000 µM.
Take `COc1cc(OC)c2c(=O)c3cc(N)c(N4CCN(c5ccncc5)CC4)cc3n(C)c2c1`: the EC50 in [1] was found to be 5.5 µg/mL (≈ 12.3 µM). Further, the result in series [2] was inactive. Also, the Activity result was “Non-toxic” in series [3] and “Toxic” in series [6]. In [4], the IC50 is above 1000 µM. This molecule yielded a CC50 at 72 h in series [5] above 50 µg/mL.
As for `COc1cc(OC)c2c(=O)c3cc(N)c(Cl)cc3n(C)c2c1`, the EC50 is 20 µg/mL (≈ 62.7 µM) in [1] and above 100 µg/mL in series [10]. Besides, the results for the half-maximal cytotoxic concentration (CC50) at 72 h in [8] and in [5] were 20 µg/mL (≈ 62.7 µM) and above 50 µg/mL, respectively. Also, the result in series [2] was inactive. The same molecule displayed an IC50 in series [4] above 1000 µM.
As for `Cn1c2cc(Cl)c(N)cc2c(=O)c2c(O)cc(O)cc21`, the half-maximal effective concentration (EC50) worked out at 1.48 µg/mL (≈ 5.09 µM) in series [1] and 0.4 µg/mL (≈ 1.38 µM) in series [10]. Moreover, the CC50 at 72 h worked out at 5 µg/mL (≈ 17.2 µM) in series [8] and 3 µg/mL (≈ 10.3 µM) in [5]. The result in series [9] and in [2] was inactive. In [4], this molecule returned an IC50 above 1000 µM.
Turning to `COc1cc(OC)c2c(=O)c3cc(N)c(N4CCN(c5ccccn5)CC4)cc3n(C)c2c1`, the EC50 is 1.6 µg/mL (≈ 3.59 µM) in series [1] and above 100 µg/mL in [10]. The results for the CC50 at 72 h in series [8] and in series [5] were above 100 µg/mL and 50 µg/mL (≈ 112 µM), respectively. The outcome in [9] and in series [2] was inactive. Also, the Activity result in series [3] is given as “Non-toxic”; in [6], “Toxic”. Besides, in [4], the IC50 was above 1000 µM.
Regarding `COc1cc(OC)c2c(=O)c3cc(N(C)C)c(N4CCN(c5ccccn5)CC4)cc3n(C)c2c1`, the EC50 in series [1] came to 1 µg/mL (≈ 2.11 µM). In series [2], the result was inactive. The concentration for half-maximal inhibition (IC50) in series [4] is above 1000 µM. For the same molecule, in series [5], the CC50 at 72 h was 3 µg/mL (≈ 6.33 µM).
`CCn1c2cc(Cl)c(N)cc2c(=O)c2c(OC)cc(OC)cc21`: the 50% effective concentration (EC50) in series [1] was 5 µg/mL (≈ 15 µM). In series [2], the outcome was inactive. The IC50 in series [4] is above 1000 µM. The same molecule had a CC50 at 72 h in [5] of 14 µg/mL (≈ 42.1 µM).
Take `COc1cc(O)c2c(=O)c3cc(N)c(Cl)cc3n(C)c2c1`: the EC50 in [1] turned out to be 14 µg/mL (≈ 45.9 µM); in series [10], 0.7 µg/mL (≈ 2.3 µM). The 50% cytotoxic concentration (CC50) at 72 h is 14 µg/mL (≈ 45.9 µM) in [8] and 41 µg/mL (≈ 135 µM) in [5]. Also, in series [2], the outcome was inactive. In addition, the IC50 in [4] was above 1000 µM.
For `COc1cc(O)c2c(=O)c3cc(N)c(Cl)cc3[nH]c2c1`, the EC50 in series [1] was 8 µg/mL (≈ 27.5 µM). The outcome in series [2] was inactive. The molecule further yielded a half-inhibitory concentration (IC50) in series [4] above 1000 µM. For the same molecule, the CC50 at 72 h in series [5] was above 50 µg/mL.
With `COc1cc(OC)c2c(=O)c3cc(N)c(Cl)cc3[nH]c2c1`, the EC50 in series [1] turned out to be 5.7 µg/mL (≈ 18.7 µM). Besides, the outcome in [2] was inactive. For the same molecule, the IC50 in series [4] is above 1000 µM. This molecule also came in with a CC50 at 72 h in series [5] of 13 µg/mL (≈ 42.7 µM).
On the same counts, the results for `CCOc1cc(OC)cc2c1c(=O)c1cc(N)c(N3CCN(c4ccccn4)CC3)cc1n2C` are 4 µg/mL (≈ 8.7 µM), “inactive”, above 1000 µM and above 50 µg/mL.
As for `Cc1cc(C)c2c(=O)c3cc(N)c(N4CCN(c5ccccn5)CC4)cc3n(C)c2c1C`, in series [1], the half-maximal effective concentration (EC50) turned out to be 5 µg/mL (≈ 11.7 µM). For the same molecule, the outcome in [2] was inactive. This molecule also displayed an IC50 in [4] above 1000 µM. In addition, the CC50 at 72 h in [5] is above 50 µg/mL.
Regarding `COc1cc(OC)c2c(=O)c3cc(N)c(N4CCN(c5ccccn5)CC4)cc3[nH]c2c1`, the EC50 in [1] stood at 4 µg/mL (≈ 9.27 µM). In [2], the result was inactive. Besides, in series [4], the IC50 was above 1000 µM. The CC50 at 72 h in series [5] was 19 µg/mL (≈ 44 µM).
On to `Cn1c2cc(N3CCN(c4ccccc4)CC3)c(N)cc2c(=O)c2c(O)cc(O)cc21`, for which the EC50 in series [1] was 4.4 µg/mL (≈ 10.6 µM). In addition, the outcome in [2] was inactive. The molecule also yielded an IC50 in [4] above 1000 µM. In addition, the CC50 at 72 h in [5] was 16.2 µg/mL (≈ 38.9 µM).
